According to US20240067932A1, “METHODS AND COMPOSITIONS FOR GENERATING HEMOGENIC ENDOTHELIAL CELLS FROM PLURIPOTENT STEM CELLS” (Trailhead Biosystems Inc., priority 2022, published 2024):

What was measured:
Assay type in all cases: cell-based, human
[1] = test system: early mesoderm progenitors; assay: 8-factor HD-DoE experiments optimized for maximum GATA2 expression (qPCR, partial least squares models)
[2] = test system: early mesoderm progenitors; assay: as above; conditions: first model, FIG. 2; factors Forskolin, VEGF, FGF2, Albumax, SUN1162, Hydrocortisone, SB341542, Resveratrol; 3 days after stage 1
Source text: The early mesoderm progenitors were used for further differentiation along the endothelial lineage using a High-Dimensional Design of Experiments (HD-DoE) approach to simultaneously test multiple process inputs (e.g., small molecule agonists or antagonists) on output responses, such as gene expression. Based on predicted conditions that maximize expression of hemogenic endothelial enriched genes such as CD31, CD34, CD143, CD309, GATA2, Fill and RUNX1, vWF, a complex recipe was developed for generating differentiated hemogenic endothelial cells from the early mesoderm progenitors, composed of 8 agents as shown below in Table 1:
First, undifferentiated iPSC were grown for 48 h in CDM2 media containing 6 uM CHIR99021 (referred to herein as stage 1). Then stage 2 media was engineered. The basis of this was an 8-factor HD-DoE experiment with focus on differentiation of cells toward the hemogenic endothelial lineage for an additional 3 days after termination of stage 1 treatment. To test the effectors, 48 different combinations of effectors generated using Design-of-Experiments compression through D-optimality were robotically prepared. The effector combinations were prepared in a basal media and were subsequently added to the cells, which were then allowed to differentiate. Three days later, RNA extraction was performed, and gene expression was obtained using quantitative PCR analysis. The data were normalized and modeled using partial least squares regression analysis to the effector design, resulting in the generation of gene-specific models, which after model tuning for maximal Q2 predictive power, provided explanation of the effectors ability to control the expression of individual genes, combinatorically, and individually. Solutions within the tested space could then be explored to address desirability. For stage 2, conditions were created inducing the expression of GATA2, a transcription factor identified as a master regulator of hematopoiesis. GATA2 promotes the generation of HECs and facilitates endothelial-to-hematopoietic transition (EHT). GATA2 also suppresses cardiac differentiation at the mesoderm stage, directing cells to a hematopoietic fate. Optimizing for maximal expression of GATA2 led to a robust solution. […] In this model, high levels of KDR, important receptor for VEGF signaling, were observed. […] This model was derived from initial testing of eight factors including: Forskolin, VEGF, FGF2, Albumax, SUN1162, Hydrocortisone, SB341542, and Resveratrol. […] Factors with low contribution were excluded.

[3] = test system: early mesoderm progenitors; assay: Factor criticality / dynamic profile analysis of gene expression on removal of a finalized effector; parameters: expression level of GATA2 / expression level of TAL1 / expression level of CD44 / expression level of KDR / expression level of CD34 / expression level of CD31: unit not given here
[4] = second model, FIG. 3, factors CHIR, VEGF, FGF2, TTNBP, AGN194310, Y27632, Thymosin-β4, heparin
[5] = model FIG. 7, named factor removed, others kept
[6] = model FIG. 9, named factor removed
[7] = model FIG. 11, named factor removed
[8] = model FIG. 9A, before addition of SANT1
[9] = model FIG. 9A, with addition of SANT1

Compound: CCc1ccc(C2=CC(C)(C)Sc3ccc(C#Cc4ccc(C(=O)O)cc4)cc32)cc1 [AGN194310]
- factor contribution (maximum expression of GATA2) [1, 4]: relatively low factor contribution

Compound: Cc1c[nH]c(-c2cnc(NCCNc3ccc(C#N)cn3)nc2-c2ccc(Cl)cc2Cl)n1 [CHIR]
- factor contribution (maximum expression of GATA2) [1, 4]: relatively low factor contribution

Compound: C=C[C@@]1(C)CC(=O)[C@]2(O)[C@@]3(C)[C@@H](O)CCC(C)(C)[C@@H]3[C@H](O)[C@H](OC(C)=O)[C@@]2(C)O1 [Forskolin, reference compound]
- factor contribution (maximum expression of GATA2) [2]: 27
- expression level of GATA2 ([3]; model FIG. 7 (VEGF, Forskolin, FGF2), factor present): 583
- expression level of CD34 ([3]; model FIG. 7, factor present): 2350
- expression level of CD44 ([3]; model FIG. 7, factor present): 578
- expression level of FLI1 (Fill [sic]) ([3]; model FIG. 7, factor present): 3971
- expression level of KDR ([3]; model FIG. 7, factor present): 33751
- expression level of TAL1 ([3]; model FIG. 7, factor present): 370
- expression level of CD34 [3, 5]: 2240
- expression level of CD44 [3, 5]: 540
- expression level of FLI1 (Fill [sic]) [3, 5]: 3740
- expression level of GATA2 [3, 5]: 373
- expression level of KDR [3, 5]: 32839
- expression level of TAL1 [3, 5]: 318

Compound: O=C1O[C@H]([C@@H](O)CO)C(O)=C1O [L-ascorbic acid, reference compound]
- effect on expression of hemogenic endothelial genes analyzed (in words) ([3]; model FIG. 10): increased expression of crucial genes
- factor contribution (maximum expression of GATA2) ([1]; fourth model, FIG. 5, factors VEGF, FGF2, Sphingosine 1 phosphate, V11298, Pyrintegrin, Erythropoietin, L-ascorbic acid, XAV939): 5

Compound: c1ccc2c(Oc3nc(Nc4ccc(N5CCOCC5)cc4)c4ncn(C5CCCCC5)c4n3)cccc2c1 [Purmorphamine, reference compound]
- expression level of GATA2 ([3]; model FIG. 9 (Purmorphamine, VEGF, B-27 kept), factor present): 275
- expression level of CD34 ([3]; model FIG. 9, factor present): 3230
- expression level of FLI1 (Fill [sic]) ([3]; model FIG. 9, factor present): 3571
- expression level of KDR ([3]; model FIG. 9, factor present): 13612
- expression level of TAL1 ([3]; model FIG. 9, factor present): 1008
- expression level of CD34 [3, 6]: 2369
- expression level of FLI1 (Fill [sic]) [3, 6]: 2324
- expression level of GATA2 [3, 6]: 105
- expression level of KDR [3, 6]: 7614
- expression level of TAL1 [3, 6]: 428
- factor contribution (maximum expression of GATA2) ([1]; third model, FIG. 4, factors YHHU, DBZ, Purmorphamine, SANT1, LPA, Yodal, VEGF, B-27): 20

Compound: CC1=C(/C=C/C(C)=C/C=C/C(C)=C/C(=O)O)C(C)(C)CCC1 [Retinoic Acid, Retinoic acid, reference compound]
- expression level of GATA2 ([3]; model FIG. 11 (Retinoic Acid, BMP4, VEGF), factor present): 519
- expression level of CD31 ([3]; model FIG. 11, factor present): 768
- expression level of CD34 ([3]; model FIG. 11, factor present): 3971
- expression level of FLI1 (Fill [sic]) ([3]; model FIG. 11, factor present): 3250
- expression level of TAL1 ([3]; model FIG. 11, factor present): 490
- expression level of CD31 [3, 7]: 486
- expression level of CD34 [3, 7]: 2902
- expression level of FLI1 (Fill [sic]) [3, 7]: 2936
- expression level of GATA2 [3, 7]: 281
- expression level of TAL1 [3, 7]: 235
- factor contribution (maximum expression of GATA2) ([1]; fifth model, FIG. 6, factors VPA, SCF, BMP4, EFG, FLT3L, Arginine, Retinoic Acid, VEGF): 22

Compound: Cc1nn(-c2ccccc2)c(C)c1/C=N/N1CCN(Cc2ccccc2)CC1 [SANT1, reference compound]
- effect on expression of genes of interest (in words) ([3]; model FIG. 9): decreased levels of all genes of interest
- expression level of CD34 [3, 8]: 3159
- expression level of KDR [3, 8]: 13469
- expression level of TAL1 [3, 8]: 1010
- expression level of CD34 [3, 9]: 1995
- expression level of KDR [3, 9]: 12504
- expression level of TAL1 [3, 9]: 498
